Assay results as given in paper PMC5704298 (ACS Central Science, 2017).

Assays:
[1] = test system: ALK phosphorylation in NCI-H2228 and Karpas-299 cell lines; experiment: Immunoblot of ALK phosphorylation and downstream signaling; type: cell-based; conditions: 2 h, dose-dependent
[2] = test system: patients without treatment with other ALK inhibitors; conditions: phase I study, 24 patients, cited from earlier work

## Cc1cc(Nc2ncc(Cl)c(Nc3ccccc3S(=O)(=O)C(C)C)n2)c(OC(C)C)cc1C1CCNCC1 [Ceritinib]
[1]
  autophosphorylation of ALK; phosphorylation of AKT and STAT3 (immunoblot): can inhibit autophosphorylation of ALK

## CN1CCN(c2ccc(C(=O)Nc3n[nH]c4ccc(Cc5cc(F)cc(F)c5)cc34)c(NC3CCOCC3)c2)CC1 [entrectinib]
[2]; ALK+
  ORR, ALK+ patients: 57%
[2]; NRTK1–3+
  ORR, NRTK1–3+ patients: 100%
[2]; ROS1+
  ORR, ROS1+ patients: 85%
